Consider 1 compound from ChEMBL document CHEMBL4433256, “Homoharringtonine stabilizes secondary structure of guanine-rich sequence existing in the 5'-untranslated region of Nrf2” (Bioorg Med Chem Lett, 2019).

Active and inactive are the calls of the source. The calls are words filed in the database; no cut-off is given here.

Data set [1] deals with A549. Briefly: Inhibition of Nrf2 5'-untranslated region guanine-rich DNA sequence in human A549 cells assessed as potentiation of etoposide-induced apoptosis by measuring increase cleaved caspase-3 protein level in at 10 nM after 24 hrs by Western blot analysis. It counts as cell-based. In general terms: Immunoblotting shows a protein as a band on a membrane.
A short description of data set [2]: Stabilization of ssGQPLEX-delta3,4 DNA lacking third and fourth G blocks (unknown origin) by circular dichroism method.
The test system of data set [3] is A549. Briefly: Inhibition of Nrf2 5'-untranslated region guanine-rich DNA sequence in human A549 cells assessed as potentiation of etoposide-induced apoptosis by measuring increase cleaved PARP protein level in at 10 nM after 24 hrs by Western blot analysis. It counts as cell-based.
A short description of data set [4]: Binding affinity to ssGQPLEX DNA (unknown origin) assessed as dissociation constant by isothermal titration calorimetric method. (In general: ITC needs no label: the signal is the heat of the interaction.)
Data set [5] is described as follows: Stabilization of dsGQPLEX DNA (unknown origin) by circular dichroism method. (Circular dichroism is the unequal absorption of left and right circularly polarised light.)
Data set [6] is described as follows: Stabilization of ssGQPLEX DNA (unknown origin) assessed as increase in the peak of 264 nm wavelength by circular dichroism method.
In data set [7] the test system is A549. The data set can be described thus: Inhibition of Nuclear factor erythroid 2-related factor 2 5'-untranslated region guanine-rich DNA sequence in human A549 cells assessed as reduction in Nrf2 protein level at 10 nM incubated for 12 to […] hrs by Western blot analysis. It counts as cell-based.
In data set [8] the test system is A549. Briefly: Inhibition of Nrf2 5'-untranslated region guanine-rich DNA sequence in human A549 cells assessed as potentiation of etoposide-induced cytotoxicity by measuring increase in apoptosis at 10 nM after 24 hrs by TUNEL assay. It counts as cell-based.
Data set [9] relates to A549. Briefly: Inhibition of Nuclear factor erythroid 2-related factor 2 5'-untranslated region guanine-rich DNA sequence in human A549 cells assessed as suppression of AKR1C3 gene expression at 10 nM measured up to 48 hrs by RT-PCR analysis. It counts as cell-based.
Data set [10] is described as follows: Stabilization of ssGQPLEX-delta1,2 DNA lacking first and second G blocks (unknown origin) by circular dichroism method.
The nature of data set [11]: Stabilization of ssGQPLEX-G/T-2,4 DNA (unknown origin) by circular dichroism method.
Data set [12] deals with A549. Briefly: Inhibition of Nrf2 5'-untranslated region guanine-rich DNA sequence in human A549 cells assessed as potentiation of etoposide-induced cytotoxicity by measuring increase in ROS production at 10 nM after 24 hrs by DCFH-DA based assay. It counts as cell-based.
Data set [13] deals with A549. The data set can be described thus: Inhibition of Nuclear factor erythroid 2-related factor 2 5'-untranslated region guanine-rich DNA sequence in human A549 cells assessed as reduction in NRF2 mRNA levels at 10 nM after 12 to 36 hrs by RT-PCR analysis. It counts as cell-based.
For data set [14], the system named is A549. Briefly: Inhibition of Nrf2 5'-untranslated region guanine-rich DNA sequence in human A549 cells assessed as potentiation of etoposide-induced cytotoxicity by measuring decrease in cell viability at 10 nM after 24 hrs by MTT assay. It counts as cell-based.
Data set [15] relates to A549. Briefly: Inhibition of Nuclear factor erythroid 2-related factor 2 5'-untranslated region guanine-rich DNA sequence in human A549 cells assessed as suppression of AKR1B10 gene expression at 10 nM measured up to 48 hrs by RT-PCR analysis. It counts as cell-based.
Data set [16] relates to A549. Briefly: Inhibition of Nuclear factor erythroid 2-related factor 2 5'-untranslated region guanine-rich DNA sequence in human A549 cells assessed as suppression of GCLC gene expression at 10 nM measured up to 48 hrs by RT-PCR analysis. It counts as cell-based.
Data set [17] in a line: Stabilization of ssGQPLEX-G/T-1,3 DNA (unknown origin) by circular dichroism method.
A short description of data set [18]: Stabilization of ssGQPLEX-G/T-1,2,3,4 DNA by circular dichroism method.
The subject of data set [19] is A549. Briefly: Cytotoxicity against human A549 cells at 1 nM to 10 uM after 24 hrs by MTT assay. It counts as cell-based. As to conditions: a549, 24 h, 0.001 µM.

In general, Kd refers to the constant that tells how readily two partners part at equilibrium. Consider `COC(=O)C[C@](O)(CCCC(C)(C)O)C(=O)O[C@@H]1C(OC)=C[C@]23CCCN2CCc2cc4c(cc2[C@H]13)OCO4` [OMACETAXINE MEPESUCCINATE], for which the inhibition entry in the data set on A549 [1], in the data set with A549 [3], with A549 [7], in the data set with A549 [8], with A549 [9] and in the data set on A549 [12] was “Active” each time. For the same compound, the inhibition result with A549 [13], with A549 [14], in the data set with A549 [15] and in the data set with A549 [16] was “Active” in each case. Also, the result in data set [2], in data set [5], in data set [10], in [11], in [17] and in [18] was inactive. Also, in [4], the Kd was 17 µM. The outcome in data set [6] was Active. Besides, the Activity entry in the data set on A549 [19] is “Non-Toxic”.
